“Also recorded” adds a separate entry of the source. Like-named read-outs stand apart in the source and are kept apart here.
Tests used:
MT-2 cells = experiment: Analysis of intracellular nucleotides formed in MT-2 cells; assay type: in vitro ADME
[1] = system: human peripheral blood mononuclear (PBM) cells; experiment: LC/MS analysis of nucleotides formed after incubation in PBM cells; assay type: in vitro ADME; settings: for nucleosides/nucleotides detected by LC/MS / species not detected by LC/MS: 50 μM
adenosine deaminase = experiment: Adenosine deaminase assay (deamination of nucleosides); assay type: in vitro ADME
Experimental: To determine the propensity for deamination of the 6-substituted-2-amino purine nucleoside monophosphate prodrugs by adenosine deaminase, nucleoside compounds were incubated with the commercially available purified enzyme, and the reaction was followed spectrophotometrically. Reaction conditions were 50 mM potassium phosphate, pH 7.4, with 50 μM nucleoside analog in 0.5 mL at 25° C. Reaction time was 7 minutes with 0.002 units of enzyme and 120 minutes with 0.2 units of enzyme. (The unit definition of adenosine deaminase is one unit will deaminate 1.0 μmol of adenosine to inosine per minute at pH 7.5 at 25° C.) Deoxyadenosine was the positive control which was 59% deaminated under the given conditions in 7 minutes with 0.002 units of enzyme. Deoxyguanosine was the negative control. Optical density was measured at 265 nm or 285 nm. The difference in optical density between the beginning and the end of the experiment was divided by the extinction coefficient then multiplied by the volume of the reaction to determine the number of mols of substrate transformed into product. Mols of product were divided by mols of substrate equivalent to a 100% complete reaction then multiplied by 100 to obtain percent deamination. The limit of detection was 0.001 optical density units.

HIV-1LAI = experiment: Anti-HIV (in PBM cells) assay; assay type: cell-based; settings: Human immunodeficiency virus 1, PBMC; for EC50: read-out: HIV EC50; for EC90: read-out: HIV EC90
Experimental: Stock solutions (20-40 mM) of the compounds were prepared in sterile DMSO and then diluted to the desired concentration in growth medium. Cells were infected with the prototype HIV-1LAI at a multiplicity of infection of 0.01. Virus obtained from the cell supernatant was quantified on day 6 after infection by a reverse transcriptase assay using (rA)n·(dT)12-18 as template-primer. The DMSO present in the diluted solution (<0.1%) had no effect on the virus yield. AZT was included as positive control.

[2] = system: PHA-stimulated human PBMCs; settings: cited from earlier work
CEM cells = settings: previous study; cited from earlier work
human PBM cells = experiment: Cytotoxicity assay in PBM cells
Description: (§1) Cycloheximide can be included as positive cytotoxic control, and untreated cells exposed to solvent can be included as negative controls. The cytotoxicity IC50 can be obtained from the concentration-response curve using the median effective method described previously (see Chou T.-C. & Talalay P. Adv. Enzyme Regul. 1984, 22, 27-55; Belen'kii M. S. & Schinazi R. F. Antiviral Res. 1994, 25, 1-11).

[3] = system: CEM (human lymphoblastoid) cells; experiment: Cytotoxicity assay in CEM cells; settings: Lymphoblastoid cell, read-out: CEM IC50
Description: as §1

Vero cells = experiment: Cytotoxicity assay in Vero cells; settings: Chlorocebus sabaeus, read-out: Vero IC50
Description: as §1

HepG2 cells = HepG2 cells incubated with 10 μM; cited from earlier work
[4] = 50 μM nucleoside analog, 50 mM potassium phosphate pH 7.4, 25° C.
[5] = human PBM cells, RS-788 n = 3, RS-864 n = 2

[N-]=[N+]=N[C@H]1C[C@H](n2cnc3c(=O)[nH]c(N)nc32)O[C@@H]1CO [AZG]
concentration at which phosphorylation reaches steady state (MT-2 cells; MT-2, four different concentrations): 30 µM

C=CCNc1nc(N)nc2c1ncn2[C@H]1CC(N=[N+]=[N-])[C@@H](CO)O1 (stereo partly shown) [Compound 62]
nucleosides/nucleotides detected by LC/MS ([1]; human, 4 h): RFS-457-DP and RFS-457-TP
species not detected by LC/MS ([1]; human, 4 h): No RFS-427, RFS-427-MP, RFS-427-DP, or RFS-427-TP were detected

CN(C)c1nc(N)nc2c1ncn2[C@H]1CC(N=[N+]=[N-])[C@@H](CO)O1 (stereo partly shown) [Compound 69]
Conversion to the G analog by / stability to adenosine deaminase (adenosine deaminase; under the conditions tested): stable to adenosine deaminase

COc1nc(N)nc2c1ncn2[C@H]1CC(N=[N+]=[N-])[C@@H](CO)O1 (stereo partly shown) [Compound 70]
nucleosides/nucleotides detected by LC/MS ([1]; human, 4 h): RFS-506-DP, RFS-457-DP, and RFS-457-TP
species not detected by LC/MS ([1]; human, 4 h): No RFS-506, RFS-506-MP, or RFS-506-TP were detected

[N-]=[N+]=NC1C[C@H](n2cnc3c(NC4CC4)nc(N)nc32)O[C@@H]1CO (stereo partly shown) [Compound 72]
nucleosides/nucleotides detected by LC/MS ([1]; human, 4 h): RFS-457-DP and RFS-457-TP
species not detected by LC/MS ([1]; human, 4 h): No RFS-512, RFS-512-MP, RFS-512-DP, or RFS-512-TP were detected

[N-]=[N+]=NC1C[C@H](n2cnc3c(Cl)nc(N)nc32)O[C@@H]1CO (stereo partly shown) [Compound 6415]
Deamination in 7 min (0.002 units Adenosine Deaminase) (adenosine deaminase; [4]): 12.81 ± 1.57%
Deamination in 120 min (0.2 units Adenosine Deaminase) (adenosine deaminase; [4]): 240.53 ± 5.86%
AZG-TP levels compared with AZG treatment ([1]; PBM cells, 4 hr at 50 μM): higher
nucleosides/nucleotides detected by LC/MS ([1]; human, 4 h): RFS-457-TP
species not detected by LC/MS ([1]; human, 4 h): Neither Compound 6415 nor its phosphates were detected
level of unchanged drug detected (MT-2 cells; MT-2 cells treated with drug for 30 min): Negligible levels of 6415
nucleosides/nucleotides detected (MT-2 cells; MT-2 cells, 50 μM, 4 hr): converted to AZG and AZG-TP
AZG-TP levels compared with AZG treatment (MT-2 cells; MT-2 cells, 4 hr at 50 μM): higher

Nc1nc(N)c2ncn([C@H]3CO[C@@H](CO)O3)c2n1 [DAPD, (−)-β-D-2,6-diaminopurine dioxolane, reference compound]
EC50 (HIV-1LAI; [5]): 1 µM
EC90 (HIV-1LAI; [5]): 6.5 µM
DAPD levels in PBMCs relative to CEM cells ([2]; Antimicrob. Agents Chemother. 2001, 45, 158-165): 27 fold
intracellular metabolism ([2]; PHA-stimulated human PBMCs, previous study): readily deaminate to (−)-D-dioxolane guanine (DXG); also recorded: No phosphorylation of DAPD to the corresponding mono-, di-, or triphosphate forms was detected
intracellular metabolism (CEM cells): readily deaminate to (−)-D-dioxolane guanine (DXG); also recorded: No phosphorylation of DAPD to the corresponding mono-, di-, or triphosphate forms was detected
IC50 (human PBM cells; Homo sapiens, PBMC, read-out: PBM IC50): > 100 µM
IC50 [3]: > 100 µM
IC50 (Vero cells): > 100 µM

CCOC(=O)[C@H](C)NP(=O)(OC[C@@H]1OC[C@H](n2cnc3c(N)nc(N)nc32)O1)Oc1ccccc1 (stereo partly shown) [RS-864]
EC50 (HIV-1LAI): 0.24 µM
EC90 (HIV-1LAI): 1.3 µM
nucleosides/nucleotides detected by LC/MS ([1]; PBM cells, 4 hr incubation): low levels of DXG, DXG-MP, and DXG-TP; also recorded: very high levels of DAPD-TP; also recorded: low levels of DAPD, DAPD-MP, DAPD-DP
PBM IC50 printed as percent at a single concentration (human PBM cells; @ 100 μM): 66.5% @ 100 μM
IC50 [3]: > 100 µM
IC50 (Vero cells): > 100 µM

O=c1[nH]c(=O)n([C@@H]2O[C@H](CO)[C@@H](O)[C@@H]2F)cc1I [fialuridine, 1,2′-deoxy-2′-fluoro-1-D-arabinofuranosly-5-iodo-uracil]
mitochondrial morphology in electron micrographs (HepG2 cells): enlarged mitochondria with morphological changes consistent with mitochondrial dysfunction

Source: patent US9173893B2, “Purine nucleoside monophosphate prodrugs for treatment of cancer and viral infections” (Cocrystal Pharma, Inc., priority 2009, dated 2015)
